Values of other authors, collected in patent publication US20080318919A1, “Cefquinome Compositions and Methods of Their Use” (Intervet International B.V., priority 2005, published 2008).

Test system: Mannheimia haemolytica
Settings: concentration that inhibits the growth of 90% of the target pathogen

Compound: CO/N=C(\C(=O)N[C@@H]1C(=O)N2C(C(=O)[O-])=C(C[n+]3cccc4c3CCCC4)CS[C@H]12)c1csc(N)n1 [cefquinome, Cefquinome]
- MIC90: about 0.25 μg/ml
